Measured values as given in patent publication US20140296143A1, “Angiotensin-(1-7) As A Chemoprevention Agent” (Wake Forest Innovations, priority 2008, published 2014).

Tests used:
[1] = Plasma Ang-(1-7) level after intravenous infusion in mice; assay type: in vivo, mouse
[2] = test system: SK-MES-1 lung cancer cells; assay type: cell-based, human
Procedure: Unless otherwise stated, cells were grown in DMEM with 10% fetal bovine serum (FBS), 100 μg/mL penicillin and 100 units/mL streptomycin in a humidified 37° C. incubator gassed with 5% CO2 and 95% room air. Cells were grown to subconfluence in either 24-well cluster plates or 100 mm dishes and made quiescent by treatment for 48 h with serum-depleted growth media, prior to the experiments outlined below to measure cell growth (^3H-thymidine incorporation), cell signaling or apoptosis.
Subsequently, the cell monolayer was washed with cold phosphate-buffered saline (PBS; 50 mM NaPO4, 120 mM NaCl, pH=7.2). The adherent cells were precipitated with cold 10% TCA (4° C. for 30 min) and dissolved in 0.2% SDS in 0.1 N NaOH. Incorporated ^3H-thymidine was determined by liquid scintillation spectrometry, as previously described (Freeman, E. J. et al., Hypertension, 1996, 28:104-108). Growth inhibition was defined as a reduction in the amount of ^3H-thymidine incorporation as compared to the mitogen-stimulated controls.

[3] = test system: ZR-75-1 breast cancer cell line tumors; experiment: ZR-75-1 breast cancer xenograft in athymic mice, intravenous infusion; assay type: in vivo, mouse; settings: 24 μg/kg/hr infusion, 28 days; saline tumors doubled
Procedure: Male or female athymic mice (15-20 g, 2-4 weeks of age, Charles River Laboratory, Wilmington, Mass.) were housed in cages with HEPA-filtered air (12-hour light/dark cycle) and ad libitum access to food and autoclaved water. All procedures complied with the policies of the Wake Forest University Animal Care and Use Committee. Mice were inoculated subcutaneously in the lower left flank with approximately 1.9×10^6 A549 lung cancer cells or ZR-75-1 breast cancer cells suspended in 200 μL of cold Matrigel (BD Biosciences, Bedford, Mass.). […] The mice were anesthetized by inhalation with 1.5% isoflurane. […] The minipumps also contained heparin (25 U/mL) to maintain patency of the catheter. On day 28 of the infusion, the animals were anesthetized with halothane and sacrificed by decapitation. Alternatively, the mice received daily subcutaneous injections of Ang-(1-7) in saline or saline alone.
Tumor volumes were measured by caliper two times per week and calculated using the formula for a semiellipsoid. After 40 days, the mice had tumors approximately 175 mm^3 in size and were randomized for treatment.

caspase-8 = experiment: Caspase-8 activity in A549 cell lysates, fluorometric assay; assay type: cell-based, human; settings: A549 cells, 100 nM; maximal at 16 and 24 h
Procedure: The specificity of the activity of each caspase substrate was also verified by assays in the presence of specific inhibitors. […] Caspase-3 activity was measured by a fluorometric assay using Ac-DEVD-AFC (Acetylated-Asp-Glu-Val-Asp-7-amino-4-trifluoromethylcoumarin) (SEQ ID NO: 9) as a specific substrate for caspase-3 and Z-DEVD-CHO as a selective caspase-3 inhibitor. Caspase-8 activity was measured by a fluorometric assay using Ac-LETD-AFC (Acetylated-Leu-Glu-Thr-Asp-7-amino-4-trifluoromethylcoumarin) (SEQ ID NO: 10) as a specific substrate and Z-LETD-CHO as a selective caspase-8 inhibitor. The data are presented as relative fluorescence units (RFU).

caspase-9 = experiment: Caspase-9 activity in A549 cell lysates; assay type: cell-based, human; settings: A549 cells, 100 nM
[4] = test system: MAP kinase kinase 5 (MEK5); experiment: MEK5 expression in SK-LU-1 cells by RT-PCR and Western analysis; assay type: cell-based, human; settings: SK-LU-1, 1% serum, 10 nM, 4 and 8 h
Procedure: RNA, isolated from cells or tissue, using the TRIzol reagent (GIBCO Invitrogen, Carlsbad, Calif.), was subjected to reverse transcriptase/real-time polymerase chain reaction as previously described (Tallant et al., Am. J. Physiol. Heart Circ. Physiol., 2005, 289:1560-1566). All reactions were performed in triplicate and 18S ribosomal RNA, amplified using the TaqMan Ribosomal RNA Control Kit (Applied Biosystems), served as an internal control. The results were quantified as Ct values, where Ct is defined as the threshold cycle of PCR at which amplified product is first detected, and defined as relative gene expression (the ratio of target/control). For RT-PCR, total RNA was isolated using the Atlas Pure Total RNA Labeling System (Clontech Laboratories, Inc). The RNA concentration was quantified by UV spectroscopy and any degradation assessed by ethidium bromide staining intensity of 28S and 18S ribosomal RNA following agarose gel electrophoresis. […] Following PCR, the amplification products were separated by polyacrylamide gel electrophoresis, visualized by autoradiography, and analyzed using the MCID imaging system.
Proteins were separated electrophoretically on SDS polyacrylamide gels, transferred to polyvinyl membranes, and incubated with primary antibodies to proteins of interest. […] The density of each immunoreactive product was quantified using the MCID imaging system. […]

AT1 angiotensin receptor = settings: cited from earlier work

CC[C@H](C)[C@H](NC(=O)[C@H](Cc1ccc(O)cc1)NC(=O)[C@@H](NC(=O)[C@H](CCCNC(=N)N)NC(=O)[C@@H](N)CC(=O)O)C(C)C)C(=O)N[C@@H](Cc1c[nH]cn1)C(=O)N1CCC[C@H]1C(=O)O [Ang-(1-7), Asp-Arg-Val-Tyr-Ile-His-Pro]
increase of plasma concentration over saline-infused animals ([1]; 24 μg/kg/h intravenous infusion, Ki-ras^G12C mice): 5 fold
plasma concentration of the heptapeptide ([1]; 24 μg/kg/h intravenous infusion, Ki-ras^G12C mice, 84 days, n=8, saline 38.7±11.45): 0.20132 ± 0.099 ng/mL
level at 2016 h ([1]; Ki-ras^G12C, mouse, plasma, iv, 24 ug/kg/h, read-out: plasma concentration of the heptapeptide): 0.201 ± 0.099 ng/mL
level at time molar at 1728 h ([1]; mouse, plasma, 24 ug/kg/h, 24 μg/kg/h intravenous, 72 days of infusion into mice, n=8, from 0.043±0.013): 0.224 ± 0.11 nM
IC50 ([2]; 48 h): 0.4 nM
^3H-thymidine incorporation over time of treatment ([2]; SK-MES-1, 1% FBS, daily addition of 100 nM): progressively reduced
reduction in tumor volume compared to tumor size prior to treatment [3]: ~40%
time-dependent increase in caspase-8 activity (caspase-8): about 2 fold
caspase-9 activity (caspase-9): no effect
MEK5 mRNA and protein [4]: reduced
IC50 at the AT1 angiotensin receptor (AT1 angiotensin receptor; Tallant et al., 1999): micromolar range
competition at the AT1 receptor (AT1 angiotensin receptor; literature): poor competitor
